# From paper PMC7845594, “Novel Immune Modulators Enhance Caenorhabditis elegans Resistance to Multiple Pathogens” (mSphere, 2021)
# Entries after “also recorded” stand apart in the source; their conditions may differ.
# Legend:
# glp-4(bn2) worms = assay: Longevity (life span) assay; settings: 50 μM in NGM, E. coli OP50, Fig 3A
# Method: To test the long-term toxicity of the hit compounds, life span assays were carried out by placing sterile, young adult glp-4(bn2) worms on NGM (standard nematode growth media, defined in Materials and Methods) seeded with Escherichia coli OP50. […] Sterile worms were used to eliminate the need to transfer worms between plates during life span assays, and we elected to use glp-4(bn2) to induce sterility instead of using wild-type worms sterilized with 5-fluoro-2′-deoxyuridine (FUDR) because the interaction of the compounds could generate artifacts during the long course of life span experiments.
# Worms were scored daily by prodding. […] The viability was normalized to a DMSO solvent control. […] Error bars represent standard error of the mean.
# Worms were picked onto agar plates seeded with 50 µl of concentrated E. coli OP50. Compounds were added to liquid agar before pouring plates. Worms were scored every day for death by prodding with a platinum wire. Worms that escaped the plate or died on the wall of the plate were censored. Each compound was tested in at least three biological replicates, each including 50 to 70 worms.
# SKN-1/Nrf pathway = assay: gst-4p::GFP reporter; type: in vivo, Caenorhabditis elegans; settings: 100 μM in 1% DMSO, no pathogen
# Description: (§1) To test activation of these pathways, worms carrying GFP-based reporters for the SKN-1/Nrf, PMK-1/p38 MAPK, and DAF-16/FOXO pathways (gst-4p::GFP, irg-5p::GFP, and DAF-16::GFP, respectively) were exposed to each compound in S Basal medium in the absence of the pathogen.
# FIG 4 A subset of LK molecules activates reporters for the SKN-1/Nrf2 or PMK-1/p38 MAPK pathways. […] Also present are DMSO and ethanol negative controls for LK compounds and juglone, respectively. The fluorescence intensity was normalized to that of DMSO. (B) Worms carrying an irg-5p::GFP reporter for PMK-1/p38 MAPK activity were incubated at 25, 50, or 100 μM in 1% DMSO. Positive and negative controls consisted of 100 μM RPW-24 in 1% DMSO and 1% DMSO alone. Fluorescence was measured at 24 h. For both panels, ∼50 worms were used per well, and at least three wells were used per condition for each biological replicate. Mean values from at least three biological replicates are shown. *, P < 0.05; **, P < 0.01; ***, P < 0.001 compared to the solvent control. P values were calculated using Student’s t test. Error bars represent the standard error of the mean.
# Worms were washed three times prior to incubation with compounds or DMSO control and diluted in S Basal medium supplemented with E. coli OP50 (OD600 = 0.08) as a food source. The fluorescence fold increase for gst-4p::GPF was taken as the fluorescence of each well and was normalized to the well’s fluorescence at 0 h. irg-5p::GFP, hsp-16.1p::GFP, rpt-6p::GFP, and hsp-4::GFP fluorescence was quantified as the fluorescence/worm area. For gst-4p::GFP, 100 µM ethanol-solubilized juglone was used as a positive control. Ethanol was also tested at 1% (vol/vol) as a control. For irg-5p::GFP, RPW-24 (100 µM) was used as a positive control. For quantification of nuclear localization of GFP fusion reporters, worms were scored as either localization positive or localization negative. DAF-16::GFP worms were scored as localization positive if >5 nuclei within the worm had localized GFP. All worms were imaged at the L4-young adult stage. […]
# CCRF-CEM = settings: cited from earlier work
# MOLT-4 = settings: cited from earlier work
# RWPE-1 cells = assay: MTT cell viability assay; settings: RWPE-1, 10, 50, or 100 µM, 24 h; cell death greater than 30% = toxicity
# Method: (B) 1.5 × 10^4 RWPE-1 immortalized prostate cells were seeded into each well of a 96-well plate. […] The viability was normalized to a DMSO solvent control. Six wells were used per condition, and an average of three biological replicates is shown.
# We also tested compound toxicity in RWPE-1 cells, a well-established, noncancerous, immortalized prostate epithelial cell line available in the lab. Cells were seeded in 96-well plates and allowed to attach before media containing various concentrations of one of the compounds (or DMSO as a control) were added. […] Cell death greater than 30% was considered evidence of toxicity (Fig. 3B).
# Then, 100 µl of DMSO was added, and the absorbance at 590 nm measured. MTT assays were performed in triplicate.
# C. elegans transcriptome = assay: Gene ontology enrichment (DAVID) of up-/downregulated genes; parameters: species or system Caenorhabditis elegans; settings: upregulated genes, 100 µM, 8 h
# Method: To gain additional insight into the effect of LK molecules on C. elegans, young-adult, wild-type worms were treated with each drug at 100 µM for 8 h in the absence of pathogen. RNA was collected, and transcriptome profiling was performed.
# Supplementary file : TABLE S4 Enriched gene ontology categories. […] Redundant gene ontology categories were removed. Download Table S4, XLSX file, 0.02 MB.
# Transcriptome profiling was performed on ∼6,000 wild-type, young adult worms incubated with either LK molecules or DMSO for 8 h. RNA isolation was performed using TRIzol extraction, followed by cleanup using RNeasy columns according to the manufacturer’s protocol. Each condition was analyzed in triplicate. Microarray data have been deposited in the GEO database, accession number GSE137516. […] Clustering and generation of the heat map was performed using Cluster 3.0 ([98]) and Treeview ([99]), respectively. Fold change of genes were normalized to average fold change of that gene over all clustered conditions. Genes and conditions were clustered using Euclidean distance and average linkages. […] Microarray data for non-LK molecules were collected from GEO omnibus. WormEXP was used as a secondary method for confirming statistical significance of potential pathways stimulated by each of the LK molecules ([100]). Gene ontologies were generated using DAVID ([101], [102]).
# PMK-1/p38 MAPK pathway = assay: irg-5p::GFP reporter; type: in vivo, Caenorhabditis elegans; settings: 25, 50, or 100 μM, 24 h, no pathogen
# Description: as §1
# FIG 4 A subset of LK molecules activates reporters for the SKN-1/Nrf2 or PMK-1/p38 MAPK pathways. […] Also present are DMSO and ethanol negative controls for LK compounds and juglone, respectively. The fluorescence intensity was normalized to that of DMSO. (B) Worms carrying an irg-5p::GFP reporter for PMK-1/p38 MAPK activity were incubated at 25, 50, or 100 μM in 1% DMSO. Positive and negative controls consisted of 100 μM RPW-24 in 1% DMSO and 1% DMSO alone. Fluorescence was measured at 24 h. […] P values were calculated using Student’s t test. […]
# Worms were washed three times prior to incubation with compounds or DMSO control and diluted in S Basal medium supplemented with E. coli OP50 (OD600 = 0.08) as a food source. The fluorescence fold increase for gst-4p::GPF was taken as the fluorescence of each well and was normalized to the well’s fluorescence at 0 h. irg-5p::GFP, hsp-16.1p::GFP, rpt-6p::GFP, and hsp-4::GFP fluorescence was quantified as the fluorescence/worm area. […] For quantification of nuclear localization of GFP fusion reporters, worms were scored as either localization positive or localization negative. […]
# ESRE network = assay: hsp-16.1p::GFP reporter (ESRE activation); type: in vivo, Caenorhabditis elegans; settings: 50 or 100 μM, no pathogen
# Description: Previous work from our lab has established that the ESRE network plays an important role in the resistance of C. elegans to pyoverdine, the main virulence determinant in liquid killing, and recent evidence has shown that ESRE activation depends on increased reactive oxygen species (ROS) ([23], [38], [39]). To evaluate ESRE activation, worms carrying an hsp-16.1p::GFP reporter (which contains two ESRE motifs and was previously used as an indicator of ESRE activation [[39][–][41]]), were exposed to 50 or 100 μM LK35, LK38, LK56, juglone (positive control), or DMSO. […] ROS level was assessed based on the fluorescence of dihydroethidium (DHE; a ROS-specific dye) using a COPAS FlowSort for flow vermimetry.
# Young adult wild-type (A), hsp-4p::GFP (B), hsp-16.1p::GFP (C), or rpt-3::GFP (D) worms were incubated with LK molecules at 50 or 100 µM, DMSO control, or positive controls. For panel A, the worms were treated with compound for 10 h, and then the worms were stained with 4 µM DHE for 1 h before washing and fluorescence measurement. For panels B to D, the worms were treated with compound for 15 h prior to fluorescence measurement. Mean values from at least three biological replicates are shown. *, P < 0.05; **, P < 0.01; ***, P < 0.001 (compared to the solvent control). P values were calculated using Student’s t test. Error bars represent the standard error of the mean. […]
SMILES,"TD50 (time to 50% death), life span (glp-4(bn2) worms) [days]",gst-4p::GFP induction (SKN-1/Nrf activation) (SKN-1/Nrf pathway),LD50 (CCRF-CEM) [µM],LD50 (MOLT-4) [µM],Toxicity in mammalian cells (MTT viability) (RWPE-1 cells),"Fold Enrichment, GO term Cytochrome P450 (C. elegans transcriptome)",irg-5p::GFP fluorescence (PMK-1/p38 MAPK activation) (PMK-1/p38 MAPK pathway),ESRE activation (hsp-16.1p::GFP) (ESRE network)
COC(=O)/C=C/C(=O)Nc1ccccc1 [LK32],8.8,induced gst-4p::GFP,~40,~40,poorly tolerated; also recorded: substantial toxicity,,,
CNC(=O)Oc1c(Br)cc2sc(=O)oc2c1Br [LK34],10.1,induced gst-4p::GFP,,,some toxicity,,,
CCN(CC)/N=N/c1ccc(C(=O)O)cc1 [LK35],7.7,,,,,,,
CN(C)/N=N/c1ccc(-c2cn(Cc3ccccc3)cn2)cc1 [LK38],7.6,,,,,12.2,modest increase,
O=c1cc(CNc2ccc(Br)cc2)nc2sccn12 [LK56],7.8,not activated,,,,12.9,modest increase,weak activation
